Experiments:
[1] = tested on: Taxus chinensis var. mairei cell line 211; assay: Content changes of baccatin III and paclitaxel for different treatment times of MeJA (LC-MS); type: cell-based; details: 100 μM MeJA
Description: (§1) Taxus chinensis var. mairei cell line 211 were divided into two groups: the experimental group (MeJA+) was soaked with 100 μM methyl jasmonate; the control group (MeJA−) was soaked with 0.05% ethanol solution. The experiments of the two groups were carried out at the same time, and the samples were collected after 0 h, 2 h, 3 h and 4 h respectively, for the analysis of the expression pattern of TcTSs gene and the content of baccatin III and paclitaxel, with three biological replicates.
The metabolites were extracted by the modified Wolfender method. The specific steps include: weighing 100 mg of lyophilized cell powder to place it in a 2 ml centrifuge tube, adding 1.5 ml of extraction buffer (methanol:water=80:20, v/v) and vortexing to suspend it, containing 500 ng/ml dexamethasone as the internal standard, after ultrasonic extraction for 30 min, centrifuging at 14,000 g for 15 min; the supernatant was centrifuged and dried in a vacuum concentrator (LABCONCO), and finally the sample was resuspended in 200 μL methanol solvent (80:20, v/v) for LCMS analysis. Samples were analyzed by LC-MS by using an ACQUITY UPLC I-Class/AB SCIEX (Waters) instrument.
The separation column was Waters (2.1×50 mm; ACQUITY UPLC™ Waters XselectHSS T3); the injection volume was 10 μL, and the flow rate was 0.2 mL/min.
The mobile phase composition: A was 0.1% formic acid methanol; B was 0.1% formic acid water.
The LC separation procedure was as follows: equilibrating with 40% A for 2 min, followed by gradient elution for 10 min to 100% B, maintaining for 2 min, and then returning to 40% A equilibration for 1 min. ESI ion source, positive ion mode. Data acquisition and processing were performed on AB SCIEXAnalyst 1.6.3 software (Applied Biosystems).

TcTS2 gene = assay: Expression pattern of TcTS2 gene under MeJA stress (qPCR); type: cell-based, Taxus chinensis var. mairei; details: 100 μM MeJA, 4 h, 2^−ΔΔCt, reference TcACTIN1
Description: as §1
(§2) EASYspin Plant Total RNA Extraction Kit (Aidlab, Beijing) was used to extract and collect the total RNA of the samples with different treatment times. 1 μg of total RNA of different samples was respectively taken for the synthesis of the first-strand cDNA, using it as the template for real-time fluorescence quantitative PCR. Kit Hifair® III 1st Strand cDNA Synthesis (YEASEN, China) and qPCR fluorescent dye kit Hieff® qPCR SYBR® Green Master Mix (Low Rox Plus) (commercial reagents, purchased from YEASEN, China) were used for the first-strand cDNA synthesis. qPCR experiments were performed on the QuantStudio™ 3 system with 2 technical replicates and 3 biological replicates. Actin1 (TcACTIN1) gene of Taxus chinensis var. mairei was used as an internal reference gene, and the relative expression of TcTSs genes was calculated by using the 2^−ΔΔCt method.

TcTS1 gene = assay: Expression pattern of TcTS1 gene under MeJA stress (qPCR); type: cell-based, Taxus chinensis var. mairei; details: 100 μM MeJA, 0-4 h, 2^−ΔΔCt, reference TcACTIN1
Description: as §1, §2

[2] = In vitro activity of TcTSs-His6 (GC-MS of enzymatic reaction product); type: biochemical, Taxus chinensis var. mairei; details: 100 μg purified protein, 100 μM GGPP, 32° C., 2 h
Description: The in vitro enzymatic reaction system was 500 μL, containing 100 μg purified protein, 100 μM GGPP (Sigma-Aldrich) and enzyme reaction buffer (25 mM, pH 8.5, 10% glycerol, 5 mM DTT, 5 mM ascorbate, 5 mM sodium metabisulfite and 1 mM MgCl2), the reaction mixture was covered with 500 μL of pentane (Macklin, GC-MS grade) and reacted in a 32° C. water bath for 2 h, vortexing for 2 min, centrifuging at 5000 rpm for 10 min; the pentane layer was taken out, putting into 2 mL of the sample, concentrating at low temperature by using a nitrogen blower; the product was analyzed by gas chromatography mass spectrometry (GC-MS) instrument.
The control group was the reaction product of purified recombinant protein TcTSs-His6 after being boiled at 100° C. for 10 min. The GC-MS instrument was Agilent 7890B/7000C (Agilent Technologies, Waldbronn, USA), mass spectrometry detector parameters: 70 eV, helium flow rate 1.2 mL/min, chromatographic column Agilent HP-5 MS (5% phenylmethyl silica, 30 m×250 μm inner diameter, 0.25 μm film thickness), the injection volume is 1-5 μL; the temperature program of the column oven is as follows: 45° C. for 1 min, then 10° C./min gradient increase to 250° C., and remaining at 250° C. for 5 min. […]

[3] = Kinetic constants of TcTSs-His6 ([1-3H]-GGPP, liquid scintillation counting); type: biochemical, Taxus chinensis var. mairei
Description: Kinetic parameter detection: standard enzymatic reaction with a total volume of 100 μL, containing enzyme reaction buffer (25 mM, pH 8.5, 10% glycerol, 5 mM DTT, 5 mM ascorbate, 5 mM sodium metabisulfite and 1 mM MgCl2), 34 μg (TcTS1-His6) or 18 μg (TcTS2-His6) recombinant protein, and […] concentrations of GGPP (0.2 μM, 0.5 μM, 1 μM, 2.5 μM, 5 μM, 10 μM, 25 μM, 50 μM) mixed with […] substrate (American Radiolabeled Chemicals, Inc, 30 Ci/mM).
Labeled [1-3H]-GGPP was diluted 400-fold with unlabeled GGPP (Sigma, 1 mg/mL). The reaction mixture was reacted at 32° C. for 30 min, then quenching with 100 μL of stop buffer (containing IM EDTA and 4M NaOH) for 10 min; the reaction mixture was extracted with 800 μL of n-hexane (vortexing for 2 min, centrifuging at 12,000 rpm for 10 min); 400 μL of n-hexane extract was taken to add into 2 mL of liquid scintillation cocktail to mix well. The total radioactivity of the reaction products was determined by using a liquid scintillation counter (Tri-Carb 2910TR, Perkin Elmer). Kinetic constants were calculated by nonlinear regression fitting of Michaelis-Menten equation through Origin 8.6 software.

[4] = substrate GGPP, 32° C., 30 min, Michaelis-Menten fit

| Molecule | increased fold of baccatin III as compared to the control group ([1]; 2 h) | increased fold of paclitaxel as compared to the control group ([1]; 2 h) | increase fold of baccatin III ([1]; 4 h) | increase fold of paclitaxel ([1]; 4 h) | induction fold of TcTS2 expression relative to 0 h (TcTS2 gene) | expression of TcTS1 under MeJA stress (TcTS1 gene) | main products taxa-4 (5), 11 (12)-diene (accounting for) [2] | secondary products taxa-4 (20), 11 (12)-diene (accounting for) [2] | catalytic efficiency relative to TcTS1-His6 (Kcat value) ([3]; from Kcat values) | Ka [3, 4] | Kcat [3, 4] |
| --- | --- | --- | --- | --- | --- | --- | --- | --- | --- | --- | --- |
| CC/C=C\CC1C(=O)CCC1CC(=O)OC (centres unmarked) [MeJA, methyl jasmonate] | 1.48 times | 9.53 times | 7.01 times | 12.91 times | 7 | up-regulated | – | – | – | – | – |
| TcTS2-His6: taxadiene synthase from Taxus chinensis var. mairei, amino acid sequence SEQ ID NO: 1 (protein, C-terminal His6 tag; Amino acid sequence of Taxadiene Synthase TcTS2) MSSSPTKLATENANAVAESNLIPRLSANYHGDLWHHGVIQTLQTPYQESSSYQERAEELIVKIKDMFKAVEEGAISPSAYDTAWVARVPDGSEKPRFPQALNWLLHNQLQDGSWGLESHFMLSDRLLSTLNSVISLLVWKTGQQQVEQGTLFITENLKLLEGEDELPPDFEIIFPALLQKAKALGMSLPDHDLPFIKSLSVAREARLASYTDNNIPASMLNALEGLEEVIDWDKIMRFQMPCLYSIDLLERLSLVDNIEHLGIGRHFKQEIKVALDYVYRYWSERGIGLGRDSLIPDLNTTALGLRTLRAHGYNVSSEVLNNFKDENGRFFSSLGQTHVELRSMVNLLRASDLAFPDEPLMDDAKIFAEAYLRDALATRISTNTKLFKEIDYAVEYPWHMSIPRLEARSYIDVYDDDYTWQNKTLYRMSNLSNAYCLELAKLDFNIVQSLHQEELKLLTRWWKESGMADINFTRHRVAEVYFSSATFEPEYSSTRIAFTKIGCLQVLFDDMADIFATLDELRDFTEGVKRWDTSLIHKLPDCMQTCFRVWFNLMEEVNNDVSNVQGRDMLNHIRKPWELYFNCYVQEREWLDAGYIPTLEEYLKTYSISVGLGPCTLQPILLMGDIVKDDVVEKVHYPSNLFELVSLSWRLTNDTKTYQAEKARGQQASGIACYMKDNPGSTEEDAIKYICGVVDRALKEACFEYFKPADDVPMSCKSFIFNLRLCVQIFYKFIDGYGIANEEIKDYIRKVYIEPIQV | – | – | – | – | – | – | 94% | 4% | 3 times | 8.6 ± 1.5 pM/µg/min | 0.00901 s⁻¹ |
